From PubChem BioAssay AID1963437 (Molecular Pharmacology Branch, DTP, NCI, 2024)
Where “and” joins values, the source holds several entries; their conditions need not be identical. Identical values can stand only once. Values belong to the compound of their own block, whether it stands above or below them.

Tested on: OVCAR-8 complex spheroid, growth inhibition
Assay: Anticancer human tumor OVCAR-8 cell line growth inhibition [Asc];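 further: spheroids exposed to agents for 7 days before readout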;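 on viability, T/C: percent viability relative to DMSO vehicle wells taken as 100%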
Conditions: for viability, T/C: stronger effect = lower value
Outline: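 Tumor cells were grown as multicellular spheroids with stromal HUVEC and mesenchymal stem cells and treated singly or in combination. Concentrations fell in half-log steps from the clinical Cmax, or from 10 microM where none was known.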

[1] = curve of first compound, second compound 0.00316 µM
[2] = curve of first compound, second compound 0.01 µM
[3] = curve of first compound, second compound 0.0316 µM
[4] = curve of first compound, second compound 0.1 µM
[5] = curve of first compound, second compound 0.316 µM
[6] = curve of first compound, second compound 1 µM
[7] = second compound 0.00316 µM, first compound 0.00316 µM
[8] = second compound 0.00316 µM, first compound 0.01 µM
[9] = second compound 0.00316 µM, first compound 0.0316 µM
[10] = second compound 0.00316 µM, first compound 0.1 µM
[11] = second compound 0.01 µM, first compound 0.00316 µM
[12] = second compound 0.01 µM, first compound 0.01 µM
[13] = second compound 0.01 µM, first compound 0.0316 µM
[14] = second compound 0.01 µM, first compound 0.1 µM
[15] = second compound 0.0316 µM, first compound 0.00316 µM
[16] = second compound 0.0316 µM, first compound 0.01 µM
[17] = second compound 0.0316 µM, first compound 0.0316 µM
[18] = second compound 0.0316 µM, first compound 0.1 µM
[19] = second compound 0.0316 µM, first compound 0.316 µM
[20] = second compound 0.0316 µM, first compound 1 µM
[21] = second compound 0.1 µM, first compound 0.00316 µM
[22] = second compound 0.1 µM, first compound 0.01 µM
[23] = second compound 0.1 µM, first compound 0.0316 µM
[24] = second compound 0.1 µM, first compound 0.1 µM
[25] = second compound 0.1 µM, first compound 0.316 µM
[26] = second compound 0.1 µM, first compound 1 µM
[27] = second compound 0.316 µM, first compound 0.00316 µM
[28] = second compound 0.316 µM, first compound 0.01 µM
[29] = second compound 0.316 µM, first compound 0.0316 µM
[30] = second compound 0.316 µM, first compound 0.1 µM
[31] = second compound 0.316 µM, first compound 0.316 µM
[32] = second compound 0.316 µM, first compound 1 µM
[33] = second compound 1 µM, first compound 0.00316 µM
[34] = second compound 1 µM, first compound 0.01 µM
[35] = second compound 1 µM, first compound 0.0316 µM
[36] = second compound 1 µM, first compound 0.1 µM
[37] = second compound 1 µM, first compound 0.316 µM
[38] = second compound 1 µM, first compound 1 µM

IC50 [1]: > 1 µM
IC50 [2]: > 1 µM
IC50 [3]: > 1 µM
IC50 [4]: > 1 µM
IC50 [5]: > 1 µM
IC50 [6]: > 1 µM
SMILES: CCN1CCN(Cc2ccc(Nc3ncc(F)c(-c4cc(F)c5nc(C)n(C(C)C)c5c4)n3)nc2)CC1 + CNC(C)C(=O)NC1CN(S(=O)(=O)c2cccc(S(=O)(=O)N3CCC4CCC(C(=O)NC(c5ccccc5)c5ccccc5)N4C(=O)C(NC(=O)C(C)NC)C3)c2)CCC2CCC(C(=O)NC(c3ccccc3)c3ccccc3)N2C1=O
viability, T/C [7]: 102%
viability, T/C [8]: 95.7%
viability, T/C [9]: 96%
viability, T/C [10]: 85.9%
viability, T/C (second compound 0.00316 µM, first compound 0.316 µM): 111%
viability, T/C (second compound 0.00316 µM, first compound 1 µM): 114%
viability, T/C [11]: 91.3%
viability, T/C [12]: 86.7%
viability, T/C [13]: 85%
viability, T/C [14]: 85.3%
viability, T/C (second compound 0.01 µM, first compound 0.316 µM): 99.9%
viability, T/C (second compound 0.01 µM, first compound 1 µM): 148%
viability, T/C [15]: 90.6%
viability, T/C [16]: 88.5%
viability, T/C [17]: 84.7%
viability, T/C [18]: 81.2%
viability, T/C [19]: 91.2%
viability, T/C [20]: 116%
viability, T/C [21]: 84%
viability, T/C [22]: 78%
viability, T/C [23]: 83.9%
viability, T/C [24]: 92.5%
viability, T/C [25]: 96.7%
viability, T/C [26]: 111%
viability, T/C [27]: 75.6%
viability, T/C [28]: 72%
viability, T/C [29]: 82.5%
viability, T/C [30]: 74.7%
viability, T/C [31]: 102%
viability, T/C [32]: 111%
viability, T/C [33]: 79.8%
viability, T/C [34]: 72.3%
viability, T/C [35]: 88.1%
viability, T/C [36]: 82.6%
viability, T/C [37]: 91.8%
viability, T/C [38]: 104%

IC50 (curve of compound): > 0.1 µM
SMILES: NC1CCC(NC2CC2c2ccccc2)CC1 (stereo not drawn)
viability, T/C (compound 0.000316 µM): 94.7% and 96.7% and 105%
viability, T/C (compound 0.001 µM): 87.7% and 82.6% and 99.8%
viability, T/C (compound 0.00316 µM): 83.1% and 85.2% and 104%
viability, T/C (compound 0.01 µM): 104% and 81.5% and 119%
viability, T/C (compound 0.0316 µM): 113% and 98.7% and 95%
viability, T/C (compound 0.1 µM): 83% and 91.6% and 115%

IC50 [1]: < 0.000316 µM
IC50 [2]: > 0.1 µM
IC50 [3]: > 0.1 µM
IC50 [4]: > 0.1 µM
IC50 [5]: > 0.1 µM
IC50 [6]: > 0.1 µM
SMILES: Cn1ncnc1[C@H]1c2n[nH]c(=O)c3cc(F)cc(c23)N[C@@H]1c1ccc(F)cc1 + CNC(C)C(=O)NC1CN(S(=O)(=O)c2cccc(S(=O)(=O)N3CCC4CCC(C(=O)NC(c5ccccc5)c5ccccc5)N4C(=O)C(NC(=O)C(C)NC)C3)c2)CCC2CCC(C(=O)NC(c3ccccc3)c3ccccc3)N2C1=O
viability, T/C (second compound 0.00316 µM, first compound 0.000316 µM): 1.94%
viability, T/C (second compound 0.00316 µM, first compound 0.001 µM): 1.14%
viability, T/C [7]: 0.66%
viability, T/C [8]: 1.15%
viability, T/C [9]: 0.71%
viability, T/C [10]: 0.74%
viability, T/C (second compound 0.01 µM, first compound 0.000316 µM): 106%
viability, T/C (second compound 0.01 µM, first compound 0.001 µM): 100%
viability, T/C [11]: 102%
viability, T/C [12]: 109%
viability, T/C [13]: 104%
viability, T/C [14]: 120%
viability, T/C (second compound 0.0316 µM, first compound 0.000316 µM): 91.7%
viability, T/C (second compound 0.0316 µM, first compound 0.001 µM): 106%
viability, T/C [15]: 91.9%
viability, T/C [16]: 97.1%
viability, T/C [17]: 99.9%
viability, T/C [18]: 95.5%
viability, T/C (second compound 0.1 µM, first compound 0.000316 µM): 106%
viability, T/C (second compound 0.1 µM, first compound 0.001 µM): 101%
viability, T/C [21]: 87.2%
viability, T/C [22]: 95.1%
viability, T/C [23]: 98.9%
viability, T/C [24]: 94.6%
viability, T/C (second compound 0.316 µM, first compound 0.000316 µM): 76.5%
viability, T/C (second compound 0.316 µM, first compound 0.001 µM): 79.7%
viability, T/C [27]: 84.5%
viability, T/C [28]: 107%
viability, T/C [29]: 97.6%
viability, T/C [30]: 85.4%
viability, T/C (second compound 1 µM, first compound 0.000316 µM): 69.5%
viability, T/C (second compound 1 µM, first compound 0.001 µM): 81.3%
viability, T/C [33]: 94.9%
viability, T/C [34]: 86.4%
viability, T/C [35]: 96.2%
viability, T/C [36]: 95.5%

IC50 [3]: 2.33 µM
IC50 [4]: 2.24 µM
IC50 [5]: 2.32 µM
IC50 [6]: 2.51 µM
IC50 (curve of first compound, second compound 3.16 µM): 2.25 µM
IC50 (curve of first compound, second compound 10 µM): 2.15 µM
SMILES: C=C(F)C(=O)N1CCN(c2nc(OCC3CCCN3C)nc3c2CCN(c2cccc4cccc(Cl)c24)C3)CC1CC#N (stereo not drawn) + Cc1c(S(C)(=O)=O)c(-c2cc(F)cc(N3CCN(c4ccc(NS(=O)(=O)c5ccc(NC(CCN6CCC(C(=O)OCCCP(=O)(O)O)CC6)CSc6ccccc6)c(S(=O)(=O)C(F)(F)F)c5)cc4)CC3)c2)c(-c2ccc(Cl)cc2)n1C(C)C
viability, T/C [17]: 102%
viability, T/C [18]: 92.4%
viability, T/C [19]: 91.8%
viability, T/C [20]: 102%
viability, T/C (second compound 0.0316 µM, first compound 3.16 µM): 33%
viability, T/C (second compound 0.0316 µM, first compound 10 µM): 2.02%
viability, T/C [23]: 95.6%
viability, T/C [24]: 94.3%
viability, T/C [25]: 97.7%
viability, T/C [26]: 111%
viability, T/C (second compound 0.1 µM, first compound 3.16 µM): 28.5%
viability, T/C (second compound 0.1 µM, first compound 10 µM): 0.39%
viability, T/C [29]: 90.3%
viability, T/C [30]: 99.5%
viability, T/C [31]: 98.7%
viability, T/C [32]: 113%
viability, T/C (second compound 0.316 µM, first compound 3.16 µM): 31.5%
viability, T/C (second compound 0.316 µM, first compound 10 µM): 0.28%
viability, T/C [35]: 92.1%
viability, T/C [36]: 88.2%
viability, T/C [37]: 96%
viability, T/C [38]: 114%
viability, T/C (second compound 1 µM, first compound 3.16 µM): 38.1%
viability, T/C (second compound 1 µM, first compound 10 µM): 1.17%
viability, T/C (second compound 3.16 µM, first compound 0.0316 µM): 102%
viability, T/C (second compound 3.16 µM, first compound 0.1 µM): 111%
viability, T/C (second compound 3.16 µM, first compound 0.316 µM): 93.2%
viability, T/C (second compound 3.16 µM, first compound 1 µM): 128%
viability, T/C (second compound 3.16 µM, first compound 3.16 µM): 25.5%
viability, T/C (second compound 3.16 µM, first compound 10 µM): 0.35%
viability, T/C (second compound 10 µM, first compound 0.0316 µM): 96.4%
viability, T/C (second compound 10 µM, first compound 0.1 µM): 73.3%
viability, T/C (second compound 10 µM, first compound 0.316 µM): 92.4%
viability, T/C (second compound 10 µM, first compound 1 µM): 121%
viability, T/C (second compound 10 µM, first compound 3.16 µM): 26.9%
viability, T/C (second compound 10 µM, first compound 10 µM): 1.06%
